Ends that are not written are not given here.
Assays:
[1] = molecular target: T1, BCL6 BTB (Homo sapiens, UniProt P41182); experiment: 19F ligand-observed NMR TFA-WVIP-NH2 peptide displacement assay; assay type: binding; details: for 19F LO-NMR, % peptide displaced: 200 µM compound, 200 µM TFA-WVIP-NH2, 6 µM BCL6 BTB, mean ± SD, n=2, hit if ≥ 30%; for Displacement of BCL6-bound TFA-WVIP-NH2 peptide (recovery of fluorine signal): Figure 3A, qualitative
T1 construct: the tag was removed by HRV-3C protease treatment, generating a simpler BCL6 5–129 product; Thioredoxin (N, cleaved yes); 6His (N, cleaved yes); made in house; host or cells: E. coli BL21-AI
Protocol: Each 180 µL ^19F-NMR peptide displacement assay contained 20 mM HEPES buffer pH 8, 100 mM NaCl, 0.5 mM TCEP, 10% D2O, 200 µM reporter TFA-WVIP-NH2, with or without 200 µM compound (4% D6-DMSO final) and 6 µM BCL6 BTB. Each 180 µL sample reaction was prepared in a 96-well plate and 170 µL transferred to a 3 mm NMR tube (Bruker, Part No. Z112272) using a Gilson liquid handler GX-281. NMR data were collected on a Bruker […] 500 MHz spectrometer equipped with a 5 mm BBFO probe. Data were acquired and processed using Bruker Topsin 2.1. The recovery of the reporter NMR signal upon addition of compound indicates competitive binding at the same site as the TFA-WVIP-NH2 tetrapeptide on the protein. We quantified the extent of recovery of NMR signal in % of reporter displacement[42]: \% displacement=Ireporter(+protein+compound)-Ireporter(+protein)/Ireporter(-protein)-Ireporter(+protein)X100\%

[2] = molecular target: T2, BCL6 BTB domain (Homo sapiens, UniProt P41182); experiment: Fluorescence polarisation (FP) competition assay with BCOR-AF633 peptide; assay type: biochemical; details: for FP pIC50 Mean / IC50: repurchased hits; for IC50: up to 2 mM, n=1-6, read-out: FP IC50 Geometric Mean
T2 construct: the tag was removed by HRV-3C protease treatment, generating a simpler BCL6 5–129 product; Thioredoxin (N, cleaved yes); 6His (N, cleaved yes); made in house; host or cells: E. coli BL21-AI
Protocol: A modified BCOR peptide containing a C-terminal cysteine, labelled with Alexa Fluor (AF)633 C5 maleimide ([…]-Cys(AF633)-amide) was obtained from Cambridge Research Biochemical. For high throughput screening, the assay was miniaturized from 10 µL in Perkin Elmer 384-well black Proxi Plus plates to 4 µL in Labcyte 1536-well black low dead volume LP-0410 plates. Each complete reaction (a modified version from[9],[17]) contained 20 mM Hepes/NaOH pH 8.0, 150 mM NaCl, 0.5 mM tris(2-carboxyethyl)phosphine (TCEP), 0.05% (v/v) Tween 20, 10 nM BCOR-AF633 peptide, 3 µM BCL6 BTB and 1–2% (v/v) DMSO. At this protein concentration, we recorded a FP signal of 80 to 90 mP, corresponding to about 55% BCOR-AF633 bound to the BCL6 BTB domain. Compounds and control BCOR peptide were dispensed using an Echo550 acoustic dispenser (Beckman Coulter). Protein and peptide reagents were added using a Multidrop combi (Thermo Scientific) or a Tempest v2 (Formulatrix). After 2 h incubation at room temperature, plates were read on an Envision plate reader (Perkin Elmer) with excitation and emission wavelengths of 620 nm and 688 nm, respectively, or Pherastar FSX (BMG Labtech) with FP filters module 590-50/675-50/675-50. […] As a low signal control, we used either the maximal inhibition by BCOR in the HTS campaign, or the signal obtained from the probe in the absence of BCL6 for IC50 determination. IC50 values were calculated using a sigmoidal dose–response (variable slope) four- parameter equation. Beside the FP measurement, the total fluorescence intensity (TFI) was recorded to allow identification of interfering compounds (TFI > 110% control)[26].

[3] = molecular target: T2, BCL6 BTB domain; experiment: Surface plasmon resonance (SPR); assay type: binding; details: immobilised BCL6 BTB, pH 6.0, 1:1 equilibrium model;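 note: Fail means no measurable KD from unsaturated curves poor sensorgrams or non-1:1 stoichiometry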
Protocol: All surface plasmon resonance (SPR) experiments were carried out on a Biacore T200 (Cytiva) and amine coupling chemistry was used to immobilise the protein on a research grade CM5 sensor chip. The running buffer consisted of 100 mM sodium acetate, 100 mM sodium chloride, and 1 mM TCEP at pH 6.0. The chip’s surface was activated for 10 min using a 1:1 mixture of 100 mM N-hydroxysuccinimide and 400 mM 1-ethyl-3-(3-dimethylaminopropyl)-carbodiimide. BCL6 BTB protein was injected for 20 min at a concentration of 100 µg/mL in a 10 mM sodium acetate buffer (pH 5.5). Finally, the surface was blocked via an injection of 1 M ethanolamine pH 8.5 for 7 min. The flow rate was maintained at 10 µL/min for all the above procedures and ~ 10,000 response units (RU) of BCL6 was immobilised on the chip. Flow cell one was left unmodified as the reference surface.
Following protein immobilisation, the running buffer was changed to 100 mM sodium acetate, 100 mM sodium chloride, 1 mM TCEP, 0.05% Tween20 (v/v), 5% DMSO at pH 6.0.
All compound handling was performed on an ECHO 550 acoustic liquid dispenser and compounds were added to 384-well polypropylene V-bottomed plates (Greiner), which became the sample plates for the SPR. […] The flow rate was 30 µL/min, the injection time for the samples was 60 s, and the dissociation time was 60 s. The surface was not regenerated between sample injections. KD values were calculated from the Langmuir plot under equilibrium conditions using the 1:1 binding model in the Biacore software version 2 (Cytiva).

[4] = NMR kinetic solubility; assay type: physicochemical; details: 500 µM final compound concentration, 20 mM HEPES buffer pH 8, 2% or 5% DMSO
Protocol: Solubility measurements by quantitative ^1H-NMR or HPLC method were performed as described previously.

[5] = molecular target: T1, BCL6 BTB; experiment: Thermal shift assay (TSA); assay type: binding; details: measured at 200 and 400 µM compound; binder if ≥ 1 °C
Protocol: Thermal shift assays were performed in 4titude FrameStar (Part No. 4ti-0385) 384 well skirted PCR plates: each well contained 10 µL of sodium acetate pH 6 buffer, 100 mM NaCl, 0.5 mM TCEP, 10 µM BCL6 BTB and 20 × Sypro Orange dye (Life Technologies), with or without inhibitor compound (100–400 µM) at 4% (v/v) final DMSO concentration. Plates were heated on a Biorad CFX384 real time thermocycler with a temperature gradient from 10 to 95 °C with a 0.5 °C increment, 0.15 s/cycle. Data were processed using Vortex (Dotmatics): a shift of the BCL6 BTB melting temperature (ΔTm) of + 1 °C or more was classed as indicative of BCL6 compound binding.

[6] = molecular target: T3, Trx-6His-BCL6 BTB (Homo sapiens, UniProt P41182); experiment: TR-FRET assay, Trx-6His-BCL6 BTB / BCOR-A633 peptide; assay type: biochemical; details: 1 or 10 nM Trx-6His-BCL6 BTB; read-out: TR-FRET IC50
T3 construct: made in house; host or cells: E. coli BL21-AI
Protocol: Each 15 µL TR-FRET reaction in 384-well black Proxiplate (Perkin Elmer) contained 1 or 10 nM Trx-6His-BCL6 BTB, 300 nM BCOR-A633 and 0.5 or 1 nM anti-6His-Terbium cryptate (Perkin Elmer), in the FP assay buffer (25 mM Hepes pH 8, 100 mM NaCl, 0.05% (v/v) Tween20, 0.5 mM TCEP), supplemented with 0.05% (w/v) bovine serum albumin. Test compounds in DMSO or DMSO alone were added to the wells using and Echo 550 acoustic dispenser to give the appropriate test concentration in 0.7% v/v DMSO final. After a 2 h incubation at room temperature, the plates were read on an Envision plate reader or a Pherastar FSX plate reader with 337 nm laser excitation, a first emission filter at 665 nm and a second emission filter at 615 or 620 nm. Data were normalised and IC50 determined as described above for the FP assay.

Compound	19F LO-NMR, % peptide displaced [1] [%]	FP pIC50 Mean [2]	IC50 [2] [µM]	Kd [3] [µM]	Sol. (NMR kinetic solubility) [4] [µM]	TSA Tm (thermal shift) [5]	IC50 [6] [µM]	Displacement of BCL6-bound TFA-WVIP-NH2 peptide (recovery of fluorine signal) [1]	SPR KD [3]	FP % inhibition at top concentration ([2]; printed beside IC50 >980 µM, 34% inhibition at 1 mM in text) [%]	FP % inhibition ([2]; at 980 µM, n=4) [%]
N#Cc1c(C(F)(F)F)cc(-c2cccs2)nc1SC(C(=O)O)c1ccccc1 (stereo not shown) [Compound 13]	102 ± 1	3.64	230	672	313	0-2.5 ºC					
CC(C)CCn1c(SCC(=O)Nc2ccccc2F)nc2nccnc2c1=O [Compound 22]	23 ± 11	3.45	353	1190	163	0.5-1 ºC					
Cn1c(=O)n(C)c2cc(Nc3cc(SCc4ccccc4)ncn3)ccc21 [Compound 17]	100 ± 1	4.15	70.2	49	39		54				
O=C(NCc1ccccn1)c1csc(Nc2ccccc2Cl)n1 [Compound 14]	78 ± 23	3.74	183	302	188	1-2.5 ºC					
CCCC1=C(C(=O)OCC)C(c2cccnc2)n2ncnc2N1 (stereo not shown) [Compound 7]	82.5 ± 5	4.02	95.5	168	476	0.5-3 ºC					
EGLVATVKEAGRSIHEIPR [SMRT, reference compound]								able to displace			
CCC1=C(C(=O)OC)C(c2ccccc2F)n2ncnc2N1 (stereo not shown) [Compound 8]		3.66	219		70	0.5-2 ºC			Fail		
COc1cccc(CN(C)c2nc3c(cnn3C(C)(C)C)c(=O)[nH]2)c1 [Compound 20]		3.18	666		< 30	0 ºC					
Cc1ccccc1C1CC(c2ccccc2)Nc2ncnn21 (stereo not shown) [Compound 1]	61 ± 4	3.70	197		71	0-1 ºC			Fail		
N#Cc1c(NCc2ccccc2)ccnc1Cl [Compound 21]	63 ± 7	3.92	120	81	72	1-2 ºC	70	able to displace			
Cn1c(=O)n(C)c2cc(Nc3cc(N4CCOCC4)ncn3)ccc21 [Compound 18]			> 980		55	0-0.5 ºC				34	
Fc1ccc(C2CC(c3cccc4ccccc34)n3ncnc3N2)cc1 (stereo not shown) [Compound 3]	54 ± 1	3.99	102		64	0.5-2 ºC			Fail		
Cc1cc(NCc2ccc3c(c2)OCO3)n2ncnc2n1 [Compound 9]	49.5 ± 9	3.32	477		96				Fail		
Fc1ccc(C2CC(c3ccccc3Cl)Nc3ncnn32)cc1 (stereo not shown) [Compound 5]		3.71	194		< 30	0 ºC					
WVIP peptide: hybrid BCOR/SMRT tetrapeptide with an Ac-WVIP-NH2 sequence [reference compound]											16
COC(=O)C1=C(C)Nc2ncnn2C1c1ccc(C(=O)O)cc1 (stereo not shown) [Compound 6]	33.5 ± 1	3.15	703	659	538	0.5-1 ºC					
O=C(NCCCN1CCOCC1)c1csc(Nc2cccc3ccccc23)n1 [Compound 15]	70 ± 1	3.83	150	553	83						

Reference: article PMC9633773, “Discovering cell-active BCL6 inhibitors: effectively combining biochemical HTS with multiple biophysical techniques, X-ray crystallography and cell-based assays” (Scientific Reports, 2022)
